Data reported in patent publication US11319337B2, “3-desoxy derivative and pharmaceutical compositions thereof” (Intercept Pharmaceuticals, Inc., priority 2016, dated 2022).
Converted amounts (≈) assume the structure as drawn. Where a name gives a salt, the structure may show the parent alone. Read-outs that look alike come from different tables or passages of the source.

Experiments:
Human FXR = target: T1, Human FXR (Homo sapiens, UniProt Q96RI1); assay: AlphaScreen assay, FXR-LBD-GST / SRC-1 LXXLL peptide recruitment; type: biochemical
T1 construct: Human FXR-LBD-GST was incubated
T1 sequence (Q96RI1 262-486 limits assumed): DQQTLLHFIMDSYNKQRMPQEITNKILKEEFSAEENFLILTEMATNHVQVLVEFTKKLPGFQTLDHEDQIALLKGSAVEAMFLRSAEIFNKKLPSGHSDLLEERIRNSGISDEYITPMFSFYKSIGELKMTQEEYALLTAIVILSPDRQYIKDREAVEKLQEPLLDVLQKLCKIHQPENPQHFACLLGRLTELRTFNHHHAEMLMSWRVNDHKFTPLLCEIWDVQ

mTGR5 = mTGR5 (Mus musculus, UniProt Q80SS6); assay: TGR5 cross species activity, mTGR5; type: cell-based; conditions: Table 3, cross species
GR = GR (Homo sapiens, UniProt P04150); assay: AlphaScreen nuclear receptor profile (agonist mode), GR; type: biochemical
PPARδ = PPARδ (Homo sapiens, UniProt Q03181); assay: AlphaScreen nuclear receptor profile (agonist mode), PPARδ; type: biochemical
Description: Using the AlphaScreen assay, the selectivity of Compound 1 against the following nuclear receptors involved in the metabolic pathways can be evaluated: LXRα, LXRβ, PXR, CAR, […], PPARδ, PPARγ, RAR, RARα, VDR, TR, PR, RXRα, GR, and ER.

rTGR5 = rTGR5 (Rattus norvegicus, UniProt Q80T02); assay: TGR5 cross species activity, rTGR5; type: cell-based; conditions: Table 3, cross species
dTGR5 = dTGR5 (Canis lupus familiaris, UniProt A0A8I3PZA6); assay: TGR5 cross species activity, dTGR5; type: cell-based, dog; conditions: Table 3, cross species
CYP2C9 = target: T2, CYP2C9 (Homo sapiens, UniProt P11712); assay: CYP450 screening, fluorescent signal, recombinant baculosomes, CYP2C9; type: in vitro ADME
T2 construct: purchased Invitrogen

Human TGR5 = target: T3, Human TGR5 (Homo sapiens, UniProt Q8TDU6); assay: HTR-FRET intracellular cAMP assay in NCI-H716 cells; type: cell-based
T3 construct: Human enteroendocrine NCI-H716 cells constitutively expressing TGR5; endogenous in cells; host or cells: NCI-H716
T3 sequence (Q8TDU6 1-330): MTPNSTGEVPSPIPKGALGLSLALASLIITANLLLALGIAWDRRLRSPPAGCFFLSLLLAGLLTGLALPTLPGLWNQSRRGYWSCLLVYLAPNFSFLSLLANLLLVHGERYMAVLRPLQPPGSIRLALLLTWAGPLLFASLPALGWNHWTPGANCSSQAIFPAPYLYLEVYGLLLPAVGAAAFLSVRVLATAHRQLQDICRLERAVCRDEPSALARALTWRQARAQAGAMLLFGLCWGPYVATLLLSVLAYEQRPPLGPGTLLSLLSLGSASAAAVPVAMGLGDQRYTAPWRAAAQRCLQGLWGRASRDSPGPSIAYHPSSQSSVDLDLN

mFXR = mFXR (Mus musculus, UniProt Q60641); assay: FXR cross species activity, mFXR; type: biochemical; conditions: Table 2, cross species
HepG2 cells [1] = assay: In vitro cytotoxicity, cell viability by ATP content; type: cell-based; conditions: Homo sapiens, HepG2, read-out: ATP Content EC50
TR = assay: AlphaScreen nuclear receptor profile (agonist mode), TR; type: biochemical
PPARγ = PPARγ (Homo sapiens, UniProt P37231); assay: AlphaScreen nuclear receptor profile (agonist mode), PPARγ; type: biochemical
PR = PR (Homo sapiens, UniProt P06401); assay: AlphaScreen nuclear receptor profile (agonist mode), PR; type: biochemical
LXRβ = LXRβ (Homo sapiens, UniProt P55055); assay: AlphaScreen nuclear receptor profile (agonist mode), LXRβ; type: biochemical
Pgp = target: T4, Pgp (Homo sapiens, UniProt P08183); assay: Pgp-Glo Assay, Pgp ATPase activity; type: in vitro ADME; conditions: read-out: Pgp Substrate EC50
T4 construct: purchased V3591 and V3601
Description: The impact of Compound 1 on Pgp ATPase activity was examined in Pgp-GloTM Assay (Technical Bulletin; Pgp-GloTM Assay Systems Instructions for Use of Products […] and […]; Revised November 2015) according to the manufacturer's standard protocol.

LXRα = LXRα (Homo sapiens, UniProt Q13133); assay: AlphaScreen nuclear receptor profile (agonist mode), LXRα; type: biochemical
CYP2D6 = target: T5, CYP2D6 (Homo sapiens, UniProt P10635); assay: CYP450 screening, fluorescent signal, recombinant baculosomes, CYP2D6; type: in vitro ADME
T5 construct: purchased Invitrogen; host or cells: baculosomes (insect-cell microsomes)

RAR = assay: AlphaScreen nuclear receptor profile (agonist mode), RAR; type: biochemical
VDR = VDR (Homo sapiens, UniProt P11473); assay: AlphaScreen nuclear receptor profile (agonist mode), VDR; type: biochemical
PXR = PXR (Homo sapiens, UniProt O75469); assay: AlphaScreen nuclear receptor profile (agonist mode), PXR; type: biochemical
HepG2 cells [2] = assay: In vitro cytotoxicity, LDH release; type: cell-based; conditions: Homo sapiens
RXRα = RXRα (Homo sapiens, UniProt P19793); assay: AlphaScreen nuclear receptor profile (agonist mode), RXRα; type: biochemical
CYP2C19 = target: T6, CYP2C19 (Homo sapiens, UniProt P33261); assay: CYP450 screening, fluorescent signal, recombinant baculosomes, CYP2C19; type: in vitro ADME
T6 construct: purchased Invitrogen; host or cells: baculosomes (insect-cell microsomes)

PPARα = PPARα (Homo sapiens, UniProt Q07869); assay: AlphaScreen nuclear receptor profile (agonist mode), PPARα; type: biochemical
[3] = Critical micellar concentration; type: physicochemical; conditions: in […] NaCl water solution
dFXR = target: T7, dFXR (Canis lupus familiaris, UniProt A0A8I3N2S7); assay: FXR cross species activity, dFXR; type: biochemical, dog; conditions: Table 2, cross species
T7 construct: printed for the human protein only; fused on or other part: GST tag, printed only for the human construct

[4] = 1-octanol-water partition coefficient (LogPA-); type: physicochemical; conditions: bile acids as ionized species
Description: (§1) Physiochemical properties of Compound 1 such as water solubility, critical micellar concentration, surface tension, and LogPA were determined using methods known in the art.

CYP3A4 = target: T8, CYP3A4 (Homo sapiens, UniProt P08684); assay: CYP450 screening, fluorescent signal, recombinant baculosomes, CYP3A4; type: in vitro ADME
T8 construct: purchased Invitrogen

hERG potassium channel = hERG potassium channel (Homo sapiens, UniProt Q12809); assay: biochemical
ER = assay: AlphaScreen nuclear receptor profile (agonist mode), ER; type: biochemical
CYP1A2 = target: T9, CYP1A2 (Homo sapiens, UniProt P05177); assay: CYP450 screening, fluorescent signal, recombinant baculosomes, CYP1A2; type: in vitro ADME
T9 construct: purchased Invitrogen

rFXR = rFXR (Rattus norvegicus, UniProt Q62735); assay: FXR cross species activity, rFXR; type: biochemical; conditions: Table 2, cross species
CYP2E1 = target: T10, CYP2E1 (Homo sapiens, UniProt P05181); assay: CYP450 screening, fluorescent signal, recombinant baculosomes, CYP2E1; type: in vitro ADME
T10 construct: purchased Invitrogen; host or cells: baculosomes (insect-cell microsomes)
Description: To evaluate the potential of Compound 1 for drug-drug interactions, the six main CYP450 isoforms (CYP1A2, CYP2C9, CYP2C19, CYP2D6, CYP2E1, CYP3A4) are investigated (Obach, et al., J Pharmacol. Exp. Ther, 2006, 316, 336-348).

CAR = CAR (Homo sapiens, UniProt Q14994); assay: AlphaScreen nuclear receptor profile (agonist mode), CAR; type: biochemical
Surface tension at CMC = type: physicochemical; conditions: in […] NaCl water solution; in mN/m (unit assumed)
Description: as §1

Water solubility = type: physicochemical; conditions: BA as protonated species, hs = highly soluble, read-out: Ws (water solubility)
Description: as §1

SMILES: CC[C@H]1[C@@H](O)[C@@H]2[C@H]([C@@H](O)C[C@]3(C)[C@@H]([C@H](C)CCC(=O)O)CC[C@@H]23)[C@@]2(C)CCCC[C@@H]12 [Compound 1, 7α,11β-dihydroxy-6α-ethyl-5β-cholan-24-oic acid]
- FXR activation, in words (Human FXR): potent and selective activator
- EC50 (Human FXR; Table 1, Human FXR-LBD-GST with biotinylated LXXLL SRC-1 peptide, quantity not named in head (EC50 per Table 2)): 140 ± 40 nM
- FXR activation, in words (Human FXR; listed as compound of this invention): potent FXR agonists
- EC50 (mTGR5): > 200 µM
- EC50 (GR): > 300 µM
- EC50 (PPARδ): > 300 µM
- EC50 (rTGR5): > 200 µM
- EC50 (dTGR5): > 200 µM
- IC50 (CYP2C9): > 10 µM
- selectivity for FXR over TGR5, in words (Human TGR5): high selectivity for FXR over TGR5
- EC50 (Human TGR5; Table 1, intracellular cAMP, NCI-H716 cells, quantity not named in head (EC50 per Table 3), read-out: HTR-FRET (cAMP) Human TGR5 (NCI-H716 cells)): > 200 µM
- EC50 (Human TGR5; Table 3, cross species, read-out: hTGR5 EC50): > 200 µM
- EC50 (mFXR): 600 ± 20 nM
- EC50 (HepG2 cells [1]): > 300 µM
- EC50 (TR): > 300 µM
- EC50 (PPARγ): > 300 µM
- EC50 (PR): > 300 µM
- EC50 (LXRβ): > 300 µM
- EC50 (Pgp): > 300 µM
- EC50 (LXRα): > 300 µM
- IC50 (CYP2D6): > 10 µM
- EC50 (RAR): > 300 µM
- EC50 (VDR): > 300 µM
- EC50 (PXR): > 300 µM
- EC50 (HepG2 cells [2]): > 300 µM
- EC50 (RXRα): > 300 µM
- IC50 (CYP2C19): > 10 µM
- EC50 (PPARα): > 300 µM
- CMC (Critical Micellar Concentration) [3]: 2.0 mM
- EC50 (dFXR): 1650 ± 50 nM
- LogPA- (1-octanol-water partition coefficient) [4]: 1.8
- IC50 (CYP3A4; Blue Substrate, read-out: CYP3A4 (Blue Substrate) IC50): > 10 µM
- IC50 (CYP3A4; Green Substrate, read-out: CYP3A4 (Green Substrate) IC50): > 10 µM
- IC50 (hERG potassium channel): > 100 µM
- EC50 (ER): > 300 µM
- IC50 (CYP1A2): > 10 µM
- EC50 (rFXR): 490 ± 10 nM
- IC50 (CYP2E1): > 10 µM
- EC50 (CAR): > 300 µM

SMILES: CC[C@H]1[C@@H](O)[C@@H]2[C@H](CC[C@]3(C)[C@@H]([C@H](C)CCC(=O)O)CC[C@@H]23)[C@@]2(C)CC[C@@H](O)C[C@@H]12 [Compound A, 6α-ethyl-3α,7α-dihydroxy-5β-cholan-24-oic acid]
- STCMC (Surface Tension at CMC) (Surface tension at CMC): 43.2-48.8
- CMC (Critical Micellar Concentration) [3]: 2.9 mM
- solubility (Water solubility): 9 mM (≈ 3.79 mg/mL)
- LogPA- (1-octanol-water partition coefficient) [4]: 2.5

SMILES: CCC1C(O)C2C3CCC(C(C)CCOS(=O)(=O)O)C3(C)CCC2C2(C)CCC(O)CC12 (stereo not drawn) [Compound B, 6α-ethyl-3α,7α,23-trihydroxy-24-nor-5β-cholan-23-sulfate sodium salt]
- LogPA- (1-octanol-water partition coefficient) [4]: 2.0

SMILES: CC[C@H]1[C@@H](O)[C@@H]2[C@H](C[C@H](O)[C@]3(C)[C@@H]([C@H](C)C[C@H](C)C(=O)O)CC[C@@H]23)[C@@]2(C)CC[C@@H](O)C[C@@H]12 [Compound C, 6α-ethyl-23(S)-methyl-3α,7α,12α trihydroxy-5β-cholan-24-oic acid]
- STCMC (Surface Tension at CMC) (Surface tension at CMC): 50.1
- CMC (Critical Micellar Concentration) [3]: 2 mM
- solubility (Water solubility): 99 mM (≈ 44.6 mg/mL)
- LogPA- (1-octanol-water partition coefficient) [4]: 1.4

SMILES: CC[C@H]1[C@@H](O)C2C3CC[C@H]([C@H](C)C[C@H](C)C(=O)O)[C@@]3(C)CCC2[C@@]2(C)CC[C@@H](O)C[C@@H]12 (stereo partly drawn) [Compound D, 6α-ethyl-23(R)-methyl chenodeoxycholic acid]
- solubility (Water solubility): 15 mM (≈ 6.52 mg/mL)
- LogPA- (1-octanol-water partition coefficient) [4]: 2.9

SMILES: CC[C@H]1[C@@H](O)C2C3C[C@H](O)[C@H]([C@H](C)CCC(=O)O)[C@@]3(C)CCC2[C@@]2(C)CC[C@@H](O)C[C@@H]12 (some centres unmarked) [Compound E]
- STCMC (Surface Tension at CMC) (Surface tension at CMC): 52.4
- CMC (Critical Micellar Concentration) [3]: 5.9 mM
- solubility (Water solubility): 120 mM (≈ 52.4 mg/mL)
- LogPA- (1-octanol-water partition coefficient) [4]: 1.6

SMILES: CC[C@H]1[C@@H](O)C2C3CC[C@H]([C@H](C)CCC(=O)O)[C@@]3(C)C[C@H](O)C2[C@@]2(C)CC[C@@H](O)C[C@@H]12 (stereo partly drawn) [Compound F, 3α,7α,11β-dihydroxy-6α-ethyl-5β-cholan-24-oic acid]
- solubility (Water solubility): 143 to 150 mM (≈ 62.4 to 65.5 mg/mL)
- LogPA- (1-octanol-water partition coefficient) [4]: 0.8
